# Reference: patent publication US6703414B2, “Device and method for treating restenosis” (Arizona Board of Regents on behalf of the University of …, priority 2001, dated 2004)
# Key:
# mTOR = mTOR (Homo sapiens, UniProt P42345); test: mTOR inhibition; format: biochemical
# From the text: (§1) Highlighted are the compounds being made for antitumor testing.
# [1] = test system: NCI cell panel (60 cell lines); test: cytotoxicity NCI cell panel, MTT assay; details: 48 h, read-out: cytotoxicity NCI cell panel IC50
# From the text: as §1
# C57BL6 mice = test: in vivo; details: for Maximum tolerated dose mg/kg ip qD × 4: MTD = >10% body weight loss, C57BL6 mice; for Ratio liver toxicity/lymphocyte toxicity: liver toxicity relative to wortmannin/decrease in blood lymphocytes relative to wortmannin
# From the text: as §1
# in vivo = details: C57BL6, mouse, in vivo, ip
# From the text: as §1
smiles,measurement,setting,value
"COC[C@H]1OC(=O)/C(=C/N2CCCC2)C2=C(O)C(=O)C3=C([C@H](OC(C)=O)C[C@]4(C)C(=O)CC[C@@H]34)[C@]21C [DJM2-167, Acetic acid 6-hydroxy-1α-methoxymethyl-10β,13β-dimethyl-3,7,17-trioxo-4-pyrrolidin-1-yl-methylene-1,3,4,7,10,11β,12,13,14α,15,16,17-dodecahydro-2-oxa-cyclopenta[α]phenanthren-11-yl]",IC50,mTOR,> 3 µM
same,IC50,[1],0.5 µM
COC[C@H]1OC(=O)/C(=C/NC(C)C(=O)O)C2=C(O)C(=O)C3=C([C@H](OC(C)=O)C[C@]4(C)C(=O)CC[C@@H]34)[C@]21C (stereo partly drawn) [DJM2-177],Maximum tolerated dose mg/kg ip qD × 4,C57BL6 mice,6 mg/kg
same,Ratio liver toxicity/lymphocyte toxicity,C57BL6 mice,0.1
"COC[C@H]1OC(=O)c2coc3c2[C@@]1(C)C1=C(C3=O)[C@@H]2CCC(=O)[C@@]2(C)C[C@H]1OC(C)=O [wortmannin, reference compound]",MTD at 4 days,in vivo,2.5 mg/kg
"C=CCN(/C=C1/C(=O)O[C@H](COC)[C@@]2(C)C1=C(O)C(=O)C1=C2[C@H](OC(C)=O)C[C@]2(C)C(=O)CC[C@@H]12)CC=C [DJM2-166, Acetic acid 4-diallylaminomethylene-6-hydroxy-1-α-methoxymethyl-10β,13β-dimethyl-3,7,17-trioxo-1,3,4,7,10,11β,12,13,14α,15,16,17-dodecahydro-2-oxa-cyclopenta[α]phenanthren-11-yl ester]",IC50,mTOR,> 3 µM
same,IC50,[1],2.2 µM
COC[C@H]1OC(=O)/C(=C/SCc2ccccc2)C2=C(O)C(=O)C3=C([C@H](OC(C)=O)C[C@]4(C)C(=O)CC[C@@H]34)[C@]21C [DJM2-170],Maximum tolerated dose mg/kg ip qD × 4,C57BL6 mice,9 mg/kg
same,Ratio liver toxicity/lymphocyte toxicity,C57BL6 mice,1.5
